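Here, GI50 denotes the concentration required for 50% inhibition of growth. TGI: concentration producing complete growth inhibition.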
Assays:
Assay in all cases: NCI-60 cell line screen, 384-well format
[1] = tested on: 786-0 renal
[2] = tested on: A498 renal
[3] = tested on: A549 NSCLC
[4] = tested on: BT-549 breast
[5] = tested on: CAKI-1 renal
[6] = tested on: COLO 205 colon
[7] = tested on: DU-145 prostate
[8] = tested on: HCC-2998 colon
[9] = tested on: HCT-116 colon
[10] = tested on: HS 578T breast
[11] = tested on: HT29 colon
[12] = tested on: IGROV1 ovarian
[13] = tested on: K-562 leukemia
[14] = tested on: KM12 colon
[15] = tested on: LOX IMVI melanoma
[16] = tested on: M14 melanoma
[17] = tested on: MALME-3M melanoma
[18] = tested on: MCF7 breast
[19] = tested on: MDA-MB-231 breast
[20] = tested on: MDA-MB-468 breast
[21] = tested on: MOLT-4 leukemia
[22] = tested on: NCI-H226 lung
[23] = tested on: NCI-H23 lung
[24] = tested on: NCI-H322M lung
[25] = tested on: NCI-H460 NSCLC
[26] = tested on: NCI-H522 lung
[27] = tested on: NCI/ADR-RES ovarian
[28] = tested on: OVCAR-3 ovarian
[29] = tested on: OVCAR-5 ovarian
[30] = tested on: OVCAR-8 ovarian
[31] = tested on: PC-3 prostate
[32] = tested on: RXF 393 renal
[33] = tested on: SF-268 CNS
[34] = tested on: SF-539 CNS
[35] = tested on: SK-MEL-2 melanoma
[36] = tested on: SK-MEL-28 melanoma
[37] = tested on: SK-MEL-5 melanoma
[38] = tested on: SK-OV-3 ovarian
[39] = tested on: SN12C renal
[40] = tested on: SNB-19 CNS
[41] = tested on: SW-620 colon
[42] = tested on: T-47D breast
[43] = tested on: TK-10 renal
[44] = tested on: U251 glioblastoma
[45] = tested on: UACC-257 melanoma
[46] = tested on: UACC-62 melanoma
[47] = tested on: UO-31 renal

SMILES: CC(C)(O)C1CCC(Nc2ccc3ncc(-c4cccc(C(F)(F)F)c4)n3n2)CC1 (centres undefined)
- GI50 [1]: 554 nM
- TGI [1]: 1900 nM
- GI50 [2]: 1160 nM
- TGI [2]: 2590 nM
- GI50 [3]: 2100 nM
- TGI [3]: 7640 nM
- GI50 [4]: 1450 nM
- TGI [4]: 3880 nM
- GI50 [5]: 1490 nM
- TGI [5]: 3390 nM
- GI50 [6]: 2470 nM
- TGI [6]: 8700 nM
- GI50 [7]: 2830 nM
- TGI [7]: 12300 nM
- GI50 [8]: 1220 nM
- TGI [8]: 2750 nM
- GI50 [9]: 1700 nM
- TGI [9]: 3370 nM
- GI50 [10]: 364 nM
- TGI [10]: 1660 nM
- GI50 [11]: 1310 nM
- TGI [11]: 3050 nM
- GI50 [12]: 1910 nM
- TGI [12]: 5230 nM
- GI50 [13]: 891 nM
- TGI [13]: 2210 nM
- GI50 [14]: 51 nM
- TGI [14]: 2130 nM
- GI50 [15]: 1400 nM
- TGI [15]: 2780 nM
- GI50 [16]: 798 nM
- TGI [16]: 2220 nM
- GI50 [17]: 833 nM
- TGI [17]: 2950 nM
- GI50 [18]: 1490 nM
- TGI [18]: 3120 nM
- GI50 [19]: 1130 nM
- TGI [19]: 3420 nM
- GI50 [20]: 1090 nM
- TGI [20]: 2640 nM
- GI50 [21]: 559 nM
- TGI [21]: 1860 nM
- GI50 [22]: 1000 nM
- TGI [22]: 2660 nM
- GI50 [23]: 1460 nM
- TGI [23]: 3300 nM
- GI50 [24]: 1730 nM
- TGI [24]: 3930 nM
- GI50 [25]: 1130 nM
- TGI [25]: 2530 nM
- GI50 [26]: 1030 nM
- TGI [26]: 2560 nM
- GI50 [27]: 1380 nM
- TGI [27]: 3300 nM
- GI50 [28]: 1950 nM
- TGI [28]: 6190 nM
- GI50 [29]: 1820 nM
- TGI [29]: 6510 nM
- GI50 [30]: 1770 nM
- TGI [30]: 4710 nM
- GI50 [31]: 1370 nM
- TGI [31]: 3320 nM
- GI50 [32]: 202 nM
- TGI [32]: 616 nM
- GI50 [33]: 1510 nM
- TGI [33]: 4440 nM
- GI50 [34]: 1020 nM
- TGI [34]: 2330 nM
- GI50 [35]: 1320 nM
- TGI [35]: 2620 nM
- GI50 [36]: 1370 nM
- TGI [36]: 2690 nM
- GI50 [37]: 948 nM
- TGI [37]: 2320 nM
- GI50 [38]: 1120 nM
- TGI [38]: 2890 nM
- GI50 [39]: 1480 nM
- TGI [39]: 5000 nM
- GI50 [40]: 1900 nM
- TGI [40]: 5500 nM
- GI50 [41]: 1810 nM
- TGI [41]: 4150 nM
- GI50 [42]: 540 nM
- TGI [42]: 2120 nM
- GI50 [43]: 1390 nM
- TGI [43]: 6840 nM
- GI50 [44]: 1320 nM
- TGI [44]: 2830 nM
- GI50 [45]: 1550 nM
- TGI [45]: 3080 nM
- GI50 [46]: 1500 nM
- TGI [46]: 2840 nM
- GI50 [47]: 2120 nM
- TGI [47]: 12400 nM
